Tests used:
BT-474 [1] = experiment: normalised viability (% of control), CellTiter-Blue; higher = more viable cells (about 100 = DMSO control); settings: 100 nM; incubation time: 72 h
Method: (§1)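 DSRT, CellTiter-Blue viability, 72 h incubation. Signal is normalised to DMSO and benzethonium chloride controls. Value is the normalised response at dose 3.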

BT-549 [2] = experiment: as above; settings: 100 nM; incubation time: 72 h
Method: as §1

CAL-120 [3] = experiment: as above; settings: 100 nM; incubation time: 72 h
Method: as §1

CAL-148 [4] = experiment: as above; settings: 10 nM; incubation time: 72 h
Method: as §1

CAL-51 [5] = experiment: as above; settings: 10 nM; incubation time: 72 h
Method: as §1

CAL-85-1 [6] = experiment: as above; settings: 10 nM; incubation time: 72 h
Method: as §1

DU-4475 [7] = experiment: as above; settings: 10 nM; incubation time: 72 h
Method: as §1

HCC1143 [8] = experiment: as above; settings: 100 nM; incubation time: 72 h
Method: as §1

HCC1599 [9] = experiment: as above; settings: 100 nM; incubation time: 72 h
Method: as §1

HCC1937 [10] = experiment: as above; settings: 100 nM; incubation time: 72 h
Method: as §1

HDQ-P1 [11] = experiment: as above; settings: 10 nM; incubation time: 72 h
Method: as §1

Hs578T [12] = experiment: as above; settings: 100 nM; incubation time: 72 h
Method: as §1

MDA-MB-231 [13] = experiment: as above; settings: 100 nM; incubation time: 72 h
Method: as §1

MDA-MB-436 [14] = experiment: as above; settings: 100 nM; incubation time: 72 h
Method: as §1

MDA-MB-453 [15] = experiment: as above; settings: 10 nM; incubation time: 72 h
Method: as §1

MDA-MB-468 [16] = experiment: as above; settings: 100 nM; incubation time: 72 h
Method: as §1

MFM-223 [17] = experiment: as above; settings: 100 nM; incubation time: 72 h
Method: as §1

SK-BR-3 [18] = experiment: as above; settings: 100 nM; incubation time: 72 h
Method: as §1

BT-474 [19] = experiment: normalised viability (% of control), CellTiter-Blue; higher = more viable cells (about 100 = DMSO control); settings: incubation time: 72 h
Outline: (§2)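 Compound dissolved in 5 µl medium was pre-loaded into 384-well plates, and breast cancer cell lines in 20 µl suspension were seeded on top and incubated 72 h. After adding 2.5 µl CellTiter-Blue reagent for 2 h at 37 °C, fluorescence was read at 560/590 nm. Plates were normalised to vehicle (100) and a positive kill control (0), with Z'-factor quality control. Each value is normalised viability at a single listed concentration from the series.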

BT-549 [20] = experiment: as above; settings: incubation time: 72 h
Outline: as §2

CAL-120 [21] = experiment: as above; settings: incubation time: 72 h
Outline: as §2

CAL-148 [22] = experiment: as above; settings: incubation time: 72 h
Outline: as §2

CAL-51 [23] = experiment: as above; settings: incubation time: 72 h
Outline: as §2

CAL-85-1 [24] = experiment: as above; settings: incubation time: 72 h
Outline: as §2

DU-4475 [25] = experiment: as above; settings: incubation time: 72 h
Outline: as §2

HCC1143 [26] = experiment: as above; settings: incubation time: 72 h
Outline: as §2

HCC1599 [27] = experiment: as above; settings: incubation time: 72 h
Outline: as §2

HCC1937 [28] = experiment: as above; settings: incubation time: 72 h
Outline: as §2

HDQ-P1 [29] = experiment: as above; settings: incubation time: 72 h
Outline: as §2

Hs578T [30] = experiment: as above; settings: incubation time: 72 h
Outline: as §2

MDA-MB-231 [31] = experiment: as above; settings: incubation time: 72 h
Outline: as §2

MDA-MB-436 [32] = experiment: as above; settings: incubation time: 72 h
Outline: as §2

MDA-MB-453 [33] = experiment: as above; settings: incubation time: 72 h
Outline: as §2

MDA-MB-468 [34] = experiment: as above; settings: incubation time: 72 h
Outline: as §2

MFM-223 [35] = experiment: as above; settings: incubation time: 72 h
Outline: as §2

SK-BR-3 [36] = experiment: as above; settings: incubation time: 72 h
Outline: as §2

BT-474 [37] = experiment: normalised viability (% of control), CellTiter-Blue; higher = more viable cells (100 = DMSO, 0 = benzethonium chloride kill control); settings: incubation time: 72 h
Method: (§3)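 DSRT, CellTiter-Blue viability, 72 h incubation. Signal is normalised to DMSO and benzethonium chloride controls. Value is the normalised response at dose 1.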

BT-549 [38] = experiment: as above; settings: incubation time: 72 h
Method: as §3

CAL-120 [39] = experiment: as above; settings: incubation time: 72 h
Method: as §3

CAL-148 [40] = experiment: as above; settings: incubation time: 72 h
Method: as §3

CAL-51 [41] = experiment: as above; settings: incubation time: 72 h
Method: as §3

CAL-85-1 [42] = experiment: as above; settings: incubation time: 72 h
Method: as §3

DU-4475 [43] = experiment: as above; settings: incubation time: 72 h
Method: as §3

HCC1143 [44] = experiment: as above; settings: incubation time: 72 h
Method: as §3

HCC1599 [45] = experiment: as above; settings: incubation time: 72 h
Method: as §3

HCC1937 [46] = experiment: as above; settings: incubation time: 72 h
Method: as §3

HDQ-P1 [47] = experiment: as above; settings: incubation time: 72 h
Method: as §3

Hs578T [48] = experiment: as above; settings: incubation time: 72 h
Method: as §3

MDA-MB-231 [49] = experiment: as above; settings: incubation time: 72 h
Method: as §3

MDA-MB-436 [50] = experiment: as above; settings: incubation time: 72 h
Method: as §3

MDA-MB-453 [51] = experiment: as above; settings: incubation time: 72 h
Method: as §3

MDA-MB-468 [52] = experiment: as above; settings: incubation time: 72 h
Method: as §3

MFM-223 [53] = experiment: as above; settings: incubation time: 72 h
Method: as §3

SK-BR-3 [54] = experiment: as above; settings: incubation time: 72 h
Method: as §3

C[C@@H](CN1CC(=O)NC(=O)C1)N1CC(=O)NC(=O)C1 [Dexrazoxane]
normalised viability (BT-474 [1]): 107% | normalised viability (BT-549 [2]): 78.5% | normalised viability (CAL-120 [3]): 91.8% | normalised viability (CAL-148 [4]): 85% | normalised viability (CAL-51 [5]): 95.6% | normalised viability (CAL-85-1 [6]): 110% | normalised viability (DU-4475 [7]): 110% | normalised viability (HCC1143 [8]): 88.6% | normalised viability (HCC1599 [9]): 124% | normalised viability (HCC1937 [10]): 103% | normalised viability (HDQ-P1 [11]): 91% | normalised viability (Hs578T [12]): 89% | normalised viability (MDA-MB-231 [13]): 96.6% | normalised viability (MDA-MB-436 [14]): 101% | normalised viability (MDA-MB-453 [15]): 94.6% | normalised viability (MDA-MB-468 [16]): 109% | normalised viability (MFM-223 [17]): 93.3% | normalised viability (SK-BR-3 [18]): 61% | normalised viability (BT-474 [19]; 10 nM): 100% | normalised viability (BT-474 [19]; 1000 nM): 101% | normalised viability (BT-474 [19]; 10000 nM): 114% | normalised viability (BT-549 [20]; 10 nM): 87.2% | normalised viability (BT-549 [20]; 1000 nM): 79.2% | normalised viability (BT-549 [20]; 10000 nM): 76.8% | normalised viability (CAL-120 [21]; 10 nM): 90.1% | normalised viability (CAL-120 [21]; 1000 nM): 100% | normalised viability (CAL-120 [21]; 10000 nM): 100% | normalised viability (CAL-148 [22]; 3 nM): 84.4% | normalised viability (CAL-148 [22]; 30 nM): 92.6% | normalised viability (CAL-148 [22]; 100 nM): 91.5% | normalised viability (CAL-51 [23]; 3 nM): 93.9% | normalised viability (CAL-51 [23]; 30 nM): 96.1% | normalised viability (CAL-51 [23]; 100 nM): 92.8% | normalised viability (CAL-85-1 [24]; 3 nM): 98.4% | normalised viability (CAL-85-1 [24]; 30 nM): 93.7% | normalised viability (CAL-85-1 [24]; 100 nM): 96.7% | normalised viability (DU-4475 [25]; 3 nM): 103% | normalised viability (DU-4475 [25]; 30 nM): 97.4% | normalised viability (DU-4475 [25]; 100 nM): 104% | normalised viability (HCC1143 [26]; 10 nM): 88% | normalised viability (HCC1143 [26]; 1000 nM): 94.5% | normalised viability (HCC1143 [26]; 10000 nM): 99.6% | normalised viability (HCC1599 [27]; 10 nM): 123% | normalised viability (HCC1599 [27]; 1000 nM): 93.3% | normalised viability (HCC1599 [27]; 10000 nM): 115% | normalised viability (HCC1937 [28]; 10 nM): 99.1% | normalised viability (HCC1937 [28]; 1000 nM): 82% | normalised viability (HCC1937 [28]; 10000 nM): 92.3% | normalised viability (HDQ-P1 [29]; 3 nM): 108% | normalised viability (HDQ-P1 [29]; 30 nM): 107% | normalised viability (HDQ-P1 [29]; 100 nM): 44.3% | normalised viability (Hs578T [30]; 10 nM): 87.7% | normalised viability (Hs578T [30]; 1000 nM): 88.8% | normalised viability (Hs578T [30]; 10000 nM): 92.1% | normalised viability (MDA-MB-231 [31]; 10 nM): 95% | normalised viability (MDA-MB-231 [31]; 1000 nM): 96.6% | normalised viability (MDA-MB-231 [31]; 10000 nM): 107% | normalised viability (MDA-MB-436 [32]; 10 nM): 91.8% | normalised viability (MDA-MB-436 [32]; 1000 nM): 95.8% | normalised viability (MDA-MB-436 [32]; 10000 nM): 95.6% | normalised viability (MDA-MB-453 [33]; 3 nM): 104% | normalised viability (MDA-MB-453 [33]; 30 nM): 103% | normalised viability (MDA-MB-453 [33]; 100 nM): 101% | normalised viability (MDA-MB-468 [34]; 10 nM): 101% | normalised viability (MDA-MB-468 [34]; 1000 nM): 97.4% | normalised viability (MDA-MB-468 [34]; 10000 nM): 100% | normalised viability (MFM-223 [35]; 10 nM): 95.2% | normalised viability (MFM-223 [35]; 1000 nM): 91.2% | normalised viability (MFM-223 [35]; 10000 nM): 93% | normalised viability (SK-BR-3 [36]; 10 nM): 93.8% | normalised viability (SK-BR-3 [36]; 1000 nM): 105% | normalised viability (SK-BR-3 [36]; 10000 nM): 103%

N[C@@H](Cc1ccc(N(CCCl)CCCl)cc1)C(=O)O [Melphalan] (0.099 nM)
normalised viability (BT-474 [37]): 85.2% | normalised viability (BT-549 [38]): 107% | normalised viability (CAL-120 [39]): 82.9% | normalised viability (CAL-148 [40]): 112% | normalised viability (CAL-51 [41]): 100% | normalised viability (CAL-85-1 [42]): 85.7% | normalised viability (DU-4475 [43]): 99.8% | normalised viability (HCC1143 [44]): 84.7% | normalised viability (HCC1599 [45]): 96.1% | normalised viability (HCC1937 [46]): 87.2% | normalised viability (HDQ-P1 [47]): 107% | normalised viability (Hs578T [48]): 93.8% | normalised viability (MDA-MB-231 [49]): 95.1% | normalised viability (MDA-MB-436 [50]): 89.8% | normalised viability (MDA-MB-453 [51]): 97.8% | normalised viability (MDA-MB-468 [52]): 102% | normalised viability (MFM-223 [53]): 94.3% | normalised viability (SK-BR-3 [54]): 94%

Cc1c(C(=O)Nc2ccc(N3C[C@@H](C)O[C@@H](C)C3)nc2)cccc1-c1ccc(OC(F)(F)F)cc1 [NVP-LDE225] (1 nM)
normalised viability (BT-474 [37]): 109% | normalised viability (BT-549 [38]): 87.2% | normalised viability (CAL-120 [39]): 93.1% | normalised viability (CAL-148 [40]): 92.9% | normalised viability (CAL-51 [41]): 103% | normalised viability (CAL-85-1 [42]): 99.5% | normalised viability (DU-4475 [43]): 102% | normalised viability (HCC1143 [44]): 105% | normalised viability (HCC1599 [45]): 85.8% | normalised viability (HCC1937 [46]): 96.4% | normalised viability (HDQ-P1 [47]): 70.9% | normalised viability (Hs578T [48]): 111% | normalised viability (MDA-MB-231 [49]): 98% | normalised viability (MDA-MB-436 [50]): 79.5% | normalised viability (MDA-MB-453 [51]): 108% | normalised viability (MDA-MB-468 [52]): 129% | normalised viability (MFM-223 [53]): 96.4% | normalised viability (SK-BR-3 [54]): 91.5%
